Key:
CRP = conditions: literature reports (Ballantyne 2003; Sager 2003); cited from earlier work
plasma CRP = experiment: Plasma CRP lowering effect, WHHL rat, 28 days oral with mixed food; type: in vivo; conditions: male WHHL rat, mean ± SE, N = 11
Description: To 2 month-old male WHHL […] (11 per group) was orally administered with a mixed food a vehicle or Test compound 1 at a dose of 100 and 200 mg/kg for 28 days. Before administration and after 28 days administration, plasma CRP level was determined using CRPα Test Wako (Wako Pure Chemical Industries, Ltd.) with Hitachi, Ltd. Autoanalyzer 7070 (Table 1).

| SMILES | CRP lowering activity (CRP) | Plasma CRP level, after 28 days administration (plasma CRP; 100 mg/kg orally with mixed food for 28 days) | Plasma CRP level, after 28 days administration (plasma CRP; 200 mg/kg orally with mixed food for 28 days, *P < 0.025 vs. control) | Plasma CRP level, value of before administration (plasma CRP; baseline of the 100 mg/kg group) | Plasma CRP level, value of before administration (plasma CRP; baseline of the 200 mg/kg group) |
| --- | --- | --- | --- | --- | --- |
| O=C1[C@H](CC[C@H](O)c2ccc(F)cc2)[C@@H](c2ccc(O)cc2)N1c1ccc(F)cc1 [ezetimibe] | no CRP lowering activity |  |  |  |  |
| COc1cccc([C@H]2O[C@H](CC(=O)N3CCC(CC(=O)O)CC3)C(=O)N(CC(C)(C)COC(C)=O)c3ccc(Cl)cc32)c1OC [Test compound 1, N-[[(3R,5S)-1-(3-acetoxy-2,2-dimethylpropyl)-7-chloro-5-(2,3-dimethoxyphenyl)-2-oxo-1,2,3,5-tetrahydro-4,1-benzoxazepin-3-yl]acetyl]piperidine-4-acetic acid] |  | 3.2 ± 0.6 mg/dL | 2.1 ± 0.2* mg/dL | 4.4 ± 0.4 mg/dL | 4.4 ± 0.6 mg/dL |

Reference: patent US20090118255A1, “Crp Lowering Agent” (TAKEDA PHARMACEUTICAL COMPANY LIMITED, priority 2004, published 2009)
